pIC50: −log10 of the molar value. Where two headings read alike, the source gives them in different places. Blank lines part the entries; values can stand above or below the molecule they belong to.
Legend:
[1] = tested on: trabeculae from the right ventricular free wall of explanted human hearts; assay: Tension study: peak contractile force of isolated human right ventricular trabeculae in a muscle bath; settings: 37° C., 1.0 Hz field stimulation, increasing concentrations
Procedure: Explanted human hearts were obtained from transplant recipients (n=7) and from nonfailing donor hearts (n=1). After excision, hearts were placed immediately into ice cold Tyrode's solution and aerated with 95% O2 and 5% CO2. Trabeculae between 1-3 mm in width and 7-10 mm in length were excised from the right ventricular free wall. Subsequently trabeculae were mounted in a multi-chamber muscle bath in oxygenated Tyrode's solution at 37° C. The trabeculae were placed under 1 gram of resting tension and a field stimulation of 1.0 Hz. […] Peak contractile forces were recorded at 10 minute intervals for a total of 1½ hours. Following experimentation, trabeculae were frozen in liquid N2.

[2] = target: T1, PDE-III isolated from human platelets (Homo sapiens, UniProt Q14432); assay: PDE-III inhibition assay, [3H]cAMP substrate, [3H]Adenosine quantified; assay type: biochemical; settings: triplicate at three concentrations over log scale, semi-quantitative
T1 construct: PDE-III isolated from human platelets; from tissue; host or cells: human platelets
T1 sequence (Q14432 whole entry): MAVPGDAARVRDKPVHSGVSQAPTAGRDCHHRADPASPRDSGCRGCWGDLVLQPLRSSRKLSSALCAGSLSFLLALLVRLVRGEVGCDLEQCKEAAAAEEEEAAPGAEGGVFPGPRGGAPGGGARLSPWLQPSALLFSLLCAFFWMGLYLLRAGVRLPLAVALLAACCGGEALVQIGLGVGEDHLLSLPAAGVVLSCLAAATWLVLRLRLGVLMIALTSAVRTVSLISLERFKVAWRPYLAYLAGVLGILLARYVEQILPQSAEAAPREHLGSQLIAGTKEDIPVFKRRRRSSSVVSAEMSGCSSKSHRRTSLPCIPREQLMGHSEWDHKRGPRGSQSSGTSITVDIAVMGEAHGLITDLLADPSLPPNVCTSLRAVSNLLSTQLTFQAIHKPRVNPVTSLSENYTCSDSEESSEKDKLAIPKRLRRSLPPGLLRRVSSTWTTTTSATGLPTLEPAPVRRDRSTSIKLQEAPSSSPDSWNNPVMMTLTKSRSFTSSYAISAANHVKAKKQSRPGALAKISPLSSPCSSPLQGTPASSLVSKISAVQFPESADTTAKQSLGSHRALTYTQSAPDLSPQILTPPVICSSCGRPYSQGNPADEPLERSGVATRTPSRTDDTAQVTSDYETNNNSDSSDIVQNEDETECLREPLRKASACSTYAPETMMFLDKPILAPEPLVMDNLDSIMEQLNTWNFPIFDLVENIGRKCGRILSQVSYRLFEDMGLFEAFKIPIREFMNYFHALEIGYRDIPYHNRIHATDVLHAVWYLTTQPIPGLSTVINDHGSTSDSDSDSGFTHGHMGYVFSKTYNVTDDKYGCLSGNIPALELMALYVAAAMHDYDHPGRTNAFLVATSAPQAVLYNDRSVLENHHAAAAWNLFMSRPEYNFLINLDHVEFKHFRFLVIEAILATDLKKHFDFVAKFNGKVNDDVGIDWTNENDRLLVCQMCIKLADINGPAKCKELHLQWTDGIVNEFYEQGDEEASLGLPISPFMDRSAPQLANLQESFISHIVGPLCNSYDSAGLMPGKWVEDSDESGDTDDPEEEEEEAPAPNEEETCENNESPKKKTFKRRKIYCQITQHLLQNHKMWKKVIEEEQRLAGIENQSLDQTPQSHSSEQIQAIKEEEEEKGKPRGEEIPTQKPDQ
Procedure: Enoximone Sulfoxide enantiomer was tested for its ability to inhibit the action of PDE-III isolated from human platelets. The substrate was [^3H]cAMP+cAMP, which is converted by PDE-III to [^3H]Adenosine and then [^3H]Adenosine can be quantified.

[3] = cited from earlier work
[4] = oral, cited from earlier work
[5] = tested on: men who suffer from ED of psychogenic or organic etiology; settings: clinical studies; cited from earlier work
PDE-III = settings: cited from earlier work

SMILES: Cc1[nH]c(=O)[nH]c1C(=O)c1ccc([S+](C)[O-])cc1.O (single isomer, unassigned) [(R)-(+)-enantiomer, 1,3-Dihydro-4-methyl-5-[(4-methylsulfinyl)-benzoyl]-2H-imidazol-2-one hydrate]
peak contractile force (net, T=0 value subtracted) [1]: 175 mg of tension

pIC50 [2]: 3.83
SMILES: Cc1[nH]c(=O)[nH]c1C(=O)c1ccc([S@+](C)[O-])cc1 [(S)-(−)-enantiomer, 1,3-Dihydro-4-methyl-5-[(4-methylsulfinyl)-benzoyl]-2H-imidazol-2-one hydrate]
peak contractile force (net, T=0 value subtracted) [1]: 550 mg of tension

SMILES: CSc1ccc(C(=O)c2[nH]c(=O)[nH]c2C)cc1 [Enoximone, 1,3-Dihydro-4-methyl-5-[4-(methylthio)benzoyl]-2H-imidazol-2-one]
peak contractile force (net, T=0 value subtracted) [1]: 575 mg of tension
mean clearance ([3]; patients with cardiac failure): about 10 ml/min/kg
mean half-life ([3]; patients with cardiac failure): 6 h
Bioavailability ([3]; single oral dose of 3 mg/kg): about 55%
average steady-state plasma concentration ([4]; 50 mg every 8 hours): 115 ± 40 ng/mL
average steady-state plasma concentration ([4]; 100 mg every 8 hours): 190 ± 78 ng/mL

SMILES: CC(C)NCC(O)c1ccc(O)c(O)c1 (stereo not drawn) [Isoproterenol]
peak contractile force (net, T=0 value subtracted) [1]: > 1000 mg of tension

SMILES: CCCc1nn(C)c2c(=O)[nH]c(-c3cc(S(=O)(=O)N4CCN(C)CC4)ccc3OCC)nc12 [sildenafil, 5-[2-ethoxy-5-(4-methylpiperazin-1-ylsulphonyl)phenyl]-1-methyl-3-n-propyl-6,7-dihydro-1H-pyrazolo[4,3-d]pyrimidin-7-one]
men with improved sexual function [5]: about 70%
inhibition of PDE-III (PDE-III): negligible inhibition

From patent US20060025463A1, “Enoximone sulfoxide enantiomers and their use in the treatment of PDE-III mediated diseases” (priority 2004, published 2006)
